Source: paper PMC5095062, “The novel choline kinase inhibitor ICL-CCIC-0019 reprograms cellular metabolism and inhibits cancer cell growth” (Oncotarget, 2016)
Like-named read-outs stand apart in the source and are kept apart here.

How the values were obtained:
[1] = system: non-small lung cancer cell lines; assay: NCI-60 screen; format: cell-based; conditions: Homo sapiens, read-out: median GI50
Source text: (§1) The compound was then screened against a larger panel of cancer cell lines of diverse histopathologic origin, the NCI-60 screen. […] Mining of publicly available Cancer Genome Atlas (TCGA) expression data identified CHKA amplification and/or mRNA upregulation in 11% of breast, 5–10% of lung, 8% of ovarian, 7% of colorectal and 5% of prostate cancers. Furthermore, CHKA mRNA expression is higher in multiple tumor types compared to normal tissue (Supplementary Figure S1D). The gene was rarely mutated or deleted (0–2.5% mutation rate and < 1% deletion among all tested cancer types). The consistently high expression in a wide variety of tumor types highlights the relevance of CHKA in malignancy and role as a therapeutic target.

Breast cancer cell lines = assay: NCI-60 screen; format: cell-based; conditions: Homo sapiens, read-out: median GI50
Source text: as §1

[2] = Plasma metabolite analysis by LC-MS; format: in vivo, BALB/c mice; conditions: pooled 2-hour plasma samples
Method: (§2) Plasma pharmacokinetic parameters of ICL-CCIC-0019 were established in female BALB/c mice aged 6–8 weeks (Harlan). Mice were intraperitoneally (i.p.) or perorally (p.o.) administered a single dose of 10 mg/kg and blood collected by cardiac puncture after 5, 15, 30 minutes and 1, 2, 4, 6 and 24 h. For tissue pharmacokinetic studies, HCT116 xenograft bearing mice were administered 10 mg/kg ICL-CCIC-0019 i.p. and blood collected after 5 minutes, 2, 6 and 24 h. Plasma was obtained by centrifugation at 1000 × g for 10 minutes. Samples were snap-frozen and stored at −80°C prior to analysis. Analysis was carried out by Cyprotex Inc. using liquid chromatography–mass spectrometry (LC–MS). For analysis of plasma metabolites, 2-hour samples of tissue pharmacokinetic studies were pooled.

HCT116 xenografts = assay: [18F]-D4-FCH PET imaging; format: in vivo, BALB/c nude mice
Source text: Mice were anesthetized through isoflurane inhalation and scanned on a Siemens Multimodality Inveon small animal PET-CT scanner for [^18F]-D4-FCH PET studies using HCT116 xenografts. Low dose CT scans were first acquired (80 kVp, 0.5 mA, 220 degree rotation, 600 ms per degree exposure time, 80 μm reconstruction pixel size) for PET attenuation correction and anatomical reference. PET images were acquired following a bolus i.v. injection of approximately 3.7 MBq tracer in the tail vein. Dynamic emission scans were acquired in list mode format over 60 minutes. Data were sorted into 0.5 mm sinogram bins and 19 time frames for image reconstruction by filtered back projection (4 × 15 seconds, 4 × 60 seconds and 11 × 300 seconds). The Siemens Inveon Research Workplace software was used for visualization of radiotracer uptake. To define 3-dimensional regions of interest (ROI), 30 to 60-minute cumulative images of the dynamic were employed. Arterial input function was estimated by drawing ROIs over the center of the heart cavity using cumulative images from 0.25 to 2 minutes of the dynamic series, a method previously validated for use in rodents. The count densities were averaged for all ROIs at each time point to obtain time versus radioactivity curves (TAC). Tumor TACs were normalized to injected dose measured by a VDC-304 dose calibrator (Veenstra Instruments) and normalized uptake was expressed as percentage injected dose per mL tissue (NUV; %ID/mL).

Plasma pharmacokinetics = format: in vivo, BALB/c mice; conditions: for AUC / Cmax / half-life: female, BALB/c, mouse, plasma; for half-life: 10 mg/kg
Method: as §2

HCT116 cells [3] = assay: Reactive oxygen species assay; format: cell-based, human; conditions: 10 μM
Method: For ROS measurements, cells were seeded in 96-well plates and treated with indicated ICL-CCIC-0019 (10 μM), pro- and antioxidants (0.25% H2O2 and 5 mM N-acetyl cysteine, NAC; all from Sigma-Aldrich) for indicated times. C400 (Life Technologies) was added at a final concentration of 50 μM and incubated at 37°C for 15 minutes and fluorescence quantified.

[4] = Tissue pharmacokinetics in HCT116 xenograft bearing mice; format: in vivo, BALB/c nude mice; conditions: 10 mg/kg i.p.
Method: as §2

CHKA = target: T1, CHKA (Homo sapiens, UniProt P35790); assay: CHKA dimer integrity by BN-PAGE; format: cell-based; conditions: HCT116 cells, 24 hours
T1 construct: endogenous in cells; host or cells: HCT116
T1 sequence (P35790 whole entry): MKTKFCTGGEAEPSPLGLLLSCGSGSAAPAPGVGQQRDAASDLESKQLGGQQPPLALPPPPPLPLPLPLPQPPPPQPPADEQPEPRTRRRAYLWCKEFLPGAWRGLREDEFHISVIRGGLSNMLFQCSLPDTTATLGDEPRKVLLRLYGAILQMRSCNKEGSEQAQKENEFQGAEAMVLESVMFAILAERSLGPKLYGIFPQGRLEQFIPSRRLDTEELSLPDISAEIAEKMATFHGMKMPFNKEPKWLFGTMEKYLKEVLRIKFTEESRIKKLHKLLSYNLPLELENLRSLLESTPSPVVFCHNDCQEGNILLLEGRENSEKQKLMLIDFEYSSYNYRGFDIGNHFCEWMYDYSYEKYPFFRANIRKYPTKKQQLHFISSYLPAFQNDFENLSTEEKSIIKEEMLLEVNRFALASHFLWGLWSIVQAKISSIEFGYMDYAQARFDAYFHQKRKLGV
Method: Native gels were run using blue native polyacrylamide gel electrophoresis (BN-PAGE) method. Cell homogenates were obtained by addition of passive lysis buffer (Promega) containing protease and phosphatase inhibitors to cell pellets and incubation for 30 minutes on a tube rotor at 4°C. Samples were cleared by centrifugation for 10 minutes at 12 000 × g at 4°C. Samples were prepared by mixing 30 μg protein with an equal volume of 2 × sample buffer (62.5 mM Tris-HCl, pH 6.8, 25% (v/v) glycerol, 0.01% (w/v) bromophenol blue, 0.02% (w/v) Coomassi Blue G250; all from Sigma-Aldrich). As control, D49N CHKA2 [58] was either applied under native conditions (100 ng diluted to 10 μL in 100 mM Tris buffer pH 7.4 added to 10 μL 2 × sample buffer) or denatured using SDS [100 ng diluted in RIPA buffer, 1 × NuPAGE LDS sample buffer and 1 × sample reducing agent (both Life Technologies)] and incubated at 70°C for 10 minutes. Samples were resolved on 4–15% mini-protean TGX gels using 1 × native running buffer (25 mM Tris, 192 mM glycine, pH 8.3). The cathode buffer was additionally supplemented with 750 μL Coomassi Blue G250 [final concentration ca. 0.04% (w/v)]. Membranes were transferred and probed as described above.

HCT116 cells [5] = assay: Cell membrane integrity assay (LDH release); format: cell-based, human; conditions: 1–25 μM, 4 h
Method: Cell membrane integrity was assessed using a fluorescent kit measuring lactate dehydrogenase (LDH) release (CytoTox-ONETM, Promega) according to manufacturer's instructions.

With `CN(C)c1cc[n+](CCCCCCCCCCCC[n+]2ccc(N(C)C)cc2)cc1` [ICL-CCIC-0019] as the compound, how does the GI50 [1] read?
Its GI50 is 751 nM.

And the GI50 (Breast cancer cell lines)?
The GI50 was 627 nM.

What about the “metabolic stability in plasma” value [2] of the same compound?
Its value is “metabolically stable”.

And the “[18F]-D4-FCH tumor uptake AUC0–60” value (HCT116 xenografts; 6 hours after 10 mg/kg i.p. single dose)?
Its value is 187.7 (%ID/mL)*min.

And the “[18F]-D4-FCH tumor uptake AUC0–60” value (HCT116 xenografts; 24 hours after 10 mg/kg i.p. single dose)?
Its value is 145.8 (%ID/mL)*min.

What about the “[18F]-D4-FCH tumor uptake AUC0–60” value (HCT116 xenografts; 48 hours after 10 mg/kg i.p. single dose) of the same compound?
Its value is 139.4 (%ID/mL)*min.

And the oral bioavailability (Plasma pharmacokinetics; 10 mg/kg p.o.)?
Its oral bioavailability is “limited”.

And the AUC (Plasma pharmacokinetics; ip, 10 mg/kg I.P.)?
The AUC was 1.32 µM·h.

And the Cmax (Plasma pharmacokinetics; ip, 10 mg/kg I.P.)?
The Cmax was 5300 nM.

And the half-life (Plasma pharmacokinetics; ip, 10 mg/kg I.P., read-out: t1/2 (1))?
Its half-life is 0.0967 h.

And the half-life (Plasma pharmacokinetics; ip, 10 mg/kg I.P., read-out: t1/2 (2) (converted))?
Its half-life is 11 h.

What about the half-life (Plasma pharmacokinetics; po, 10 mg/kg P.O, read-out: t1/2 (1)) of the same compound?
The half-life was 0.167 h.

And the half-life (Plasma pharmacokinetics; po, 10 mg/kg P.O, read-out: t1/2 (2) (converted))?
The half-life was 56 h.

And the AUC (Plasma pharmacokinetics; po, 10 mg/kg P.O)?
Its AUC is 0.05 µM·h.

What about the Cmax (Plasma pharmacokinetics; po, 10 mg/kg P.O) of the same compound?
The Cmax was 36 nM.

What about the “formation of reactive oxygen species” value (HCT116 cells [3]) of the same compound?
The value was “not accompanied by formation of reactive oxygen species”.

What about the “time of peak tumor concentration post injection” value [4] of the same compound?
The value was 2 h.

And the CHKA enzyme dimerization (CHKA)?
The CHKA enzyme dimerization was “not compromised”.

And the “LDH concentration in the supernatant” value (HCT116 cells [5])?
Its value is “did not elevate LDH concentration”.
